Experimental data published in publication PMC12257510, “Structure-Guided Design of a KMT9 Inhibitor Prodrug with Cellular Activity” (Journal of Medicinal Chemistry, 2025).
pKd: −log10 of the molar value.

Experiments:
KMT9 = molecular target: T1, KMT9 (Homo sapiens, UniProt Q9Y5N5); assay: Microscale thermophoresis (MST) binding assay
T1 sequence (Q9Y5N5 1-214): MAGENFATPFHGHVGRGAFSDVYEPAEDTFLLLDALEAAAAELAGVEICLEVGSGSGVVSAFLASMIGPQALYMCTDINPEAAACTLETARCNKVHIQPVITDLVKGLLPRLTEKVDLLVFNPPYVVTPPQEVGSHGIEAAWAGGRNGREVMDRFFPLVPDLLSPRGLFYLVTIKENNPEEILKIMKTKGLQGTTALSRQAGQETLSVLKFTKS
T1 sequence (Q9UI30 1-125 partner): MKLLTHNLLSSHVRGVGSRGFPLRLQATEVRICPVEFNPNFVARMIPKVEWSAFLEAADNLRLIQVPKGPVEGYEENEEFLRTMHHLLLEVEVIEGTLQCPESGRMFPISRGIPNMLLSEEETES
Description: To determine the binding affinity of the compound and KMT9, microscale thermophoresis (MST) analysis was performed with a NanoTemper Monolith NT.115 instrument (NanoTemper Technologies GmbH). KMT9 was labeled with a RED-Tris-NTA labeling kit (NanoTemper Technologies GmbH) based on the manufacturer’s instructions. Buffer including 25 mM HEPES (pH 7.5), 100 mM NaCl, 1 mM DTT and 0.05% Tween was used for the reaction buffer. Varying concentrations of compounds were titrated against His-tag labeled KMT9 proteins (20 nM). Samples were loaded into standard Capillaries (NanoTemper Technologies GmbH) and MST measurements were performed using 40% MST power and 100% LED power. For each set of binding experiments, MST measurement was carried out with Binding Affinity module in MO. Control program under Nano-RED excitation. Data sets were processed with the MO.Affinity Analysis software (NanoTemper Technologies GmbH).

[1] = system: H4K12me1 levels in PC-3 M prostate tumor cells; assay: Western blot of cellular H4K12me1 levels; assay type: cell-based; conditions: PC-3 M cells, 10 μM, 3 days
Description: 7 Cellular activity of prodrug compound 8. (A) Levels of H4K12me1 in PC-3 M prostate tumor cells cultured in the presence of DMSO (−), 10 μM compound 8 or compound 8-N for 3 days were analyzed by Western blot using the indicated antibodies. Histone H4 was used as control. (B, C) Proliferation of Caco-2 cells treated with DMSO (Ctrl), compound 8, or compound 8-N were measured by Xcelligence. Data represent means ± s.d (n = 3). (D) Proliferation of HepG2 cells upon treatment of DMSO (Ctrl) and compound 8.
Experiments were performed as previously described. Histones used for Western blot analysis were extracted from cells as following: Cells were harvested, washed with PBS, resuspended in Triton Extraction Buffer (TEB; PBS, Triton ×100, 2 mM PMSF, 0.02% NaN3), stored 10 min on ice, centrifuged, and supernatant was discarded. After washing cells, a second time with TEB, pellets were resuspended in 0.2 N HCl and histones were acid-extracted overnight at 4 °C. Upon centrifugation for 10 min at 2000 rpm, supernatant was collected and protein concentration was determined. Three days before harvesting, cells were transfected with siRNA as indicated. The following antibodies were used: anti-KMT9α (#27630, lot 20062017, Schüle Lab), antihistone H4 (#ab10158, lot GR322677–1, Abcam), anti-H4K12me1 (#27429, lot 27062017, Schüle Lab).

SW480 cells = assay: Cell proliferation assay (X-Celligence), SW480; assay type: cell-based; conditions: Xcelligence, vs DMSO
Description: Cell proliferation was determined using the X-Celligence RTCA system (Roche). For real-time recording of SW480, Caco-2 cell proliferation, 5000 cells/well were seeded in 16 well E-plates (Roche). Cells were seeded in the presence of DMSO or compound 8/8-N or transfected with the indicated siRNAs in the presence of Dharmafect (Life Technologies) 24 h before seeding in E-plates. Cell indices were automatically recorded every 15 min. Relative velocities represent the change of the cell index over time. The sequences of the siRNAs (Stealth RNAi siRNAs; Life Technologies) used in the experiments have been previously described.

Decrease of binding affinity compared to compound 7b (KMT9; Kd ratio vs compound 7b): more than 10,000 fold | pKd (KMT9; MST, binding to KMT9, read-out: Kd): < 3.40
SMILES: CCOC(=O)[C@@H](N)CCN(CCCNCCc1ccc(Oc2ccc(Cl)cc2)c(F)c1)C[C@H]1C[C@@H](n2ccc3c(NC)ncnc32)[C@H](O)[C@@H]1O [compound 8, Ethyl (S)-2-amino-4-((3-((4-(4-chlorophenoxy)-3-fluorophenethyl)amino)propyl) (((1R,2R,3S,4R)-2,3-dihydroxy-4-(4-(methylamino)-7H-pyrrolo[2,3-d]pyrimidin-7-yl)cyclopentyl)methyl)amino)butanoate]
Levels of H4K12me1 [1]: reduced H4K12me1 levels | Proliferation of SW480 cells (SW480 cells): also found in SW480 tumor cell lines
